Measured values published in the supplement of paper PMC11061612.

Experiments:
H4 (Low Grade Glioma) = assay: combination Emax (second highest fraction inhibited in the dose matrix, 72 h); higher = more inhibition; extreme values may be limits of the assay
In short: (§1)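 Bliss excess equals the observed combination effect minus the expected value EA + EB − EA·EB, where EA and EB are the effects of each agent alone. Combination Emax is the second-highest inhibition within the matrix. Inhibition was scaled from CellTiter-Glo 2.0 luminescence, with 0 set by vehicle wells and 1 by blank wells, after 72 hours of two-drug dosing of cells plated in 1536-well plates.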

MSTO-211H (Mesothelioma) = assay: as above
In short: as §1

[1] = test system: BICR78 (Oral Cavity Carcinoma); assay: as above
In short: as §1

[2] = test system: SK-UT-1 (Other Solid Carcinomas); assay: as above
In short: as §1

[3] = test system: FU-OV-1 (Ovarian Carcinoma); assay: as above
In short: as §1

[4] = test system: SNG-M (Endometrial Carcinoma); assay: as above
In short: as §1

[5] = test system: HLE (Hepatocellular Carcinoma); assay: as above
In short: as §1

D-392MG (Glioblastoma) = assay: as above
In short: as §1

[6] = test system: YT (Other Blood Carcinomas); assay: as above
In short: as §1

CS1 (Chondrosarcoma) = assay: as above
In short: as §1

[7] = test system: SK-LMS-1 (Other Solid Carcinomas); assay: as above
In short: as §1

SK-MEL-1 (Melanoma) = assay: as above
In short: as §1

[8] = test system: SLVL (B-Cell Non-Hodgkin's Lymphoma); assay: as above
In short: as §1

[9] = test system: D-283MED (Other Solid Carcinomas); assay: Bliss excess, mean over the matrix (fraction); higher = more synergy
In short: as §1

SMILES | combination Emax (H4 (Low Grade Glioma)) | combination Emax (MSTO-211H (Mesothelioma)) | combination Emax [1] | combination Emax [2] | combination Emax [3] | combination Emax [4] | combination Emax [5] | combination Emax (D-392MG (Glioblastoma)) | combination Emax [6] | combination Emax (CS1 (Chondrosarcoma)) | combination Emax [7] | combination Emax (SK-MEL-1 (Melanoma)) | combination Emax [8] | Bliss excess [9]
N#Cc1cnc(Nc2cc(NC[C@H]3CNCCO3)c(C(F)(F)F)cn2)cn1 [SRA737] + C=CCn1c(=O)c2cnc(Nc3ccc(N4CCN(C)CC4)cc3)nc2n1-c1cccc(C(C)(C)O)n1 [AZD1775] (first compound max 10 µM, partner max 1 µM) | 0.792 | 0.726 | 0.561 | 0.843 | 0.632 | 0.883 | 0.485 | 0.518 | 1 | 0.596 | 0.649 | 0.277 | 0.935 | 0.0779
Cc1c2c(nn1C)CSCc1cc(n(C)n1)CSc1cc(c3ccccc3c1)OCCCc1c(C(=O)O)n(C)c3c-2c(Cl)ccc13 [AZD5991] + CS(=O)(=O)CCNCc1ccc(-c2ccc3ncnc(Nc4ccc(OCc5cccc(F)c5)c(Cl)c4)c3c2)o1 [Lapatinib] (first compound max 1 µM, 7x7, partner max 10 µM) | 0.484 | 0.193 | 0.445 | 0.485 | 0.42 | 0.177 | 0.23 | 0.104 | 1 | 0.506 | 0.265 | 0.37 | 0.341 | 
O=C(c1cc(Cc2n[nH]c(=O)c3ccccc23)ccc1F)N1CCN(C(=O)C2CC2)CC1 [Olaparib] + Cc1c2c(nn1C)CSCc1cc(n(C)n1)CSc1cc(c3ccccc3c1)OCCCc1c(C(=O)O)n(C)c3c-2c(Cl)ccc13 [AZD5991] (first compound max 10 µM, 7x7, partner max 1 µM) | 0.393 | 0.0433 | 0.0524 | 0.109 | 0.199 | 0.234 | 0.157 | 0.142 | 1 | 0.0992 | 0.165 | 0.127 | 0.362 | 0.0172
C[C@@H]1COCCN1c1cc(C2([S@](C)(=N)=O)CC2)nc(-c2ccnc3[nH]ccc23)n1 [AZD6738] + Nc1ccn([C@@H]2O[C@H](CO)[C@@H](O)C2(F)F)c(=O)n1 [Gemcitabine] (first compound max 10 µM, 7x7, partner max 0.3 µM) | 0.957 | 0.855 | 0.79 | 0.979 | 0.67 | 0.934 | 0.834 | 0.625 | 1 | 0.734 | 0.858 | 0.528 | 0.955 | -0.0179
Cc1cc2ncnn2cc1Nc1ncc2c(n1)n(C1CCOCC1)c(=O)n2C [AZD7648] + COc1cc([C@@H]2c3cc4c(cc3[C@@H](O[C@@H]3O[C@@H]5CO[C@@H](C)O[C@H]5[C@H](O)[C@H]3O)[C@H]3COC(=O)[C@H]23)OCO4)cc(OC)c1O [Etoposide] (first compound max 10 µM, 7x7, partner max 10 µM) | 0.756 | 0.783 | 0.666 | 0.926 | 0.603 | 0.867 | 0.729 | 0.489 | 0.974 | 0.649 | 0.822 | 0.558 | 0.924 | 0.0835
C=CCn1c(=O)c2cnc(Nc3ccc(N4CCN(C)CC4)cc3)nc2n1-c1cccc(C(C)(C)O)n1 [AZD1775] + Nc1ccn([C@@H]2O[C@H](CO)[C@@H](O)C2(F)F)c(=O)n1 [Gemcitabine] (first compound max 1 µM, partner max 0.3 µM) | 0.949 | 0.815 | 0.718 | 0.916 | 0.633 | 0.751 | 0.709 | 0.597 | 0.997 | 0.661 | 0.804 | 0.422 | 0.954 | 0.0097
CN(CCO)CC[C@H](CSc1ccccc1)Nc1ccc(S(=O)(=O)NC(=O)c2ccc(N3CCC([C@@H](O)c4ccccc4-c4ccc(Cl)cc4)CC3)cc2)cc1S(=O)(=O)C(F)(F)F [AZD4320] + Nc1ccn([C@@H]2O[C@H](CO)[C@@H](O)C2(F)F)c(=O)n1 [Gemcitabine] (first compound max 1 µM, 7x7, partner max 0.3 µM) | 0.988 | 0.96 | 0.63 | 0.978 | 0.245 | 0.913 | 0.887 | 0.96 | 0.862 | 0.789 | 0.984 | 0.649 | 1 | -0.0335
C[C@@H](Nc1cc(F)cc(F)c1)c1cc(C(=O)N(C)C)cc2c(=O)cc(N3CCOCC3)oc12 [AZD8186] + CC(=O)c1c(C)c2cnc(Nc3ccc(N4CCNCC4)cn3)nc2n(C2CCCC2)c1=O [Palbociclib] (first compound max 10 µM, 7x7, partner max 10 µM) | 0.697 | 0.428 | 0.385 | 0.231 | 0.444 | 0.432 | 0.197 | 0.446 | 0.448 | 0.513 | 0.808 | 0.265 | 0.439 | 0.113
Cc1c2c(nn1C)CSCc1cc(n(C)n1)CSc1cc(c3ccccc3c1)OCCCc1c(C(=O)O)n(C)c3c-2c(Cl)ccc13 [AZD5991] + Nc1ccn([C@@H]2O[C@H](CO)[C@@H](O)C2(F)F)c(=O)n1 [Gemcitabine] (first compound max 1 µM, 7x7, partner max 0.3 µM) | 0.949 | 0.861 | 0.642 | 0.904 | 0.196 | 0.882 | 0.713 | 0.642 | 1 | 0.445 | 0.83 | 0.441 | 0.968 | 0.0121
CN(CCO)CC[C@H](CSc1ccccc1)Nc1ccc(S(=O)(=O)NC(=O)c2ccc(N3CCC([C@@H](O)c4ccccc4-c4ccc(Cl)cc4)CC3)cc2)cc1S(=O)(=O)C(F)(F)F [AZD4320] + CC(=O)O[C@H]1C(=O)[C@@]2(C)[C@H]([C@H](OC(=O)c3ccccc3)[C@]3(O)C[C@H](OC(=O)[C@H](O)[C@@H](NC(=O)c4ccccc4)c4ccccc4)C(C)=C1C3(C)C)[C@]1(OC(C)=O)CO[C@@H]1C[C@@H]2O [Paclitaxel] (first compound max 1 µM, 7x7, partner max 3 µM) | 1 | 0.881 | 0.941 | 0.977 | 0.716 | 1 | 0.93 | 1 | 1 | 0.961 | 1 | 0.623 | 1 | -0.0081
O=C(c1cc(Cc2n[nH]c(=O)c3ccccc23)ccc1F)N1CCN(C(=O)C2CC2)CC1 [Olaparib] + COc1nnc2ccc(N3CCC(c4ccc(OCCN5CCN(C)C(=O)[C@H]5C)cc4)CC3)nn12 [AZD5153] (first compound max 10 µM, 7x7, partner max 1 µM) | 0.658 | 0.246 | 0.41 | 0.559 | 0.59 | 0.47 | 0.338 | 0.405 | 0.53 | 0.374 | 0.544 | 0.303 | 0.685 | -0.0542
C[C@@H](Oc1cc(-c2cnn(C3CCNCC3)c2)cnc1N)c1c(Cl)ccc(F)c1Cl [Crizotinib] + CC1=C(C(=CC=C1)Cl)NC(=O)C2=CN=C(S2)NC3=CC(=NC(=N3)C)N4CCN(CC4)CCO [Dasatinib] (first compound max 10 µM, 7x7, partner max 2 µM) | 0.963 | 0.674 | 0.829 | 0.454 | 0.682 | 0.973 | 0.404 | 0.921 | 0.885 | 0.836 | 0.949 | 0.916 | 0.761 | 0.0947
O=C(c1cc(Cc2n[nH]c(=O)c3ccccc23)ccc1F)N1CCN(C(=O)C2CC2)CC1 [Olaparib] + CN(CC[C@H](CSC1=CC=CC=C1)NC2=C(C=C(C=C2)S(=O)(=O)NC(=O)C3=CC=C(C=C3)N4CCC(CC4)[C@H](C5=CC=CC=C5C6=CC=C(C=C6)Cl)O)S(=O)(=O)C(F)(F)F)CCO [AZD4320] (first compound max 10 µM, 7x7, partner max 1 µM) | 0.389 | 0.456 | 0.0831 | 0.466 | 0.226 | 0.401 | 0.274 | 0.321 | 0.343 | 0.431 | 0.494 | 0.42 | 0.982 | 0.0204
C[C@@H](Nc1cc(F)cc(F)c1)c1cc(C(=O)N(C)C)cc2c(=O)cc(N3CCOCC3)oc12 [AZD8186] + C1CN(CCC1(C(=O)N[C@@H](CCO)C2=CC=C(C=C2)Cl)N)C3=NC=NC4=C3C=CN4 [AZD5363] (first compound max 10 µM, 7x7, partner max 10 µM) | 0.597 | 0.265 | 0.394 | 0.344 | 0.401 | 0.429 | 0.144 | 0.363 | 0.247 | 0.264 | 0.494 | 0.154 | 0.709 | -0.0143
O=C(c1cc(Cc2n[nH]c(=O)c3ccccc23)ccc1F)N1CCN(C(=O)C2CC2)CC1 [Olaparib] + CC1(C)CCC(CN2CCN(c3ccc(C(=O)NS(=O)(=O)c4ccc(NCC5CCOCC5)c([N+](=O)[O-])c4)c(Oc4cnc5[nH]ccc5c4)c3)CC2)=C(c2ccc(Cl)cc2)C1 [Venetoclax] (first compound max 10 µM, 7x7, partner max 1 µM) | 0.267 | 0.0774 | 0.108 | 0.162 | 0.199 | 0.179 | 0.0962 | 0.114 | 0.276 | 0.15 | 0.183 | 0.151 | 0.7 | 0.0445
C[C@@H]1COCCN1c1cc(C2([S@](C)(=N)=O)CC2)nc(-c2ccnc3[nH]ccc23)n1 [AZD6738] + C1CC(C1)(C(=O)[O-])C(=O)[O-].N.N.[Pt+2] [Carboplatin] (first compound max 10 µM, 7x7, partner max 10 µM) | 0.708 | 0.45 | 0.58 | 0.779 | 0.254 | 0.89 | 0.458 | 0.423 | 0.76 | 0.548 | 0.448 | 0.32 | 0.659 | 
